Measurements taken from US20220204439A1, “LIPIDS AND LIPID NANOPARTICLE FORMULATIONS FOR DELIVERY OF NUCLEIC ACIDS” (Acuitas Therapeutics, Inc., priority 2015, published 2022).

Columns and labels:
[1] = system: luciferase expression in the liver; test: In vivo luciferase mRNA expression in mouse liver with lipid nanoparticle formulations; set-up: species or system C57BL/6 mice; settings: tail vein injection, liver 4 hours after administration, FLuc mRNA; for Liver Luc @ 0.3 mg/kg (ng luc/g liver) / Liver Luc @ 1.0 mg/kg (ng luc/g liver): LNP 50% cationic lipid/10% DSPC/38.5% cholesterol/1.5% PEG-DMA
Experimental: (§1) Cationic lipid (MC3), DSPC, cholesterol and PEG-lipid were solubilized in ethanol at a molar ratio of 50:10:38.5:1.5. Lipid nanoparticles (LNP) were prepared at a total lipid to mRNA weight ratio of approximately 10:1 to 30:1. Briefly, the mRNA was diluted to 0.2 mg/mL in 10 to 50 mM citrate buffer, pH 4. Syringe pumps were used to mix the ethanolic lipid solution with the mRNA aqueous solution at a ratio of about 1:5 to 1:3 (vol/vol) with total flow rates above 15 ml/min. The ethanol was then removed and the external buffer replaced with PBS by dialysis. Finally, the lipid nanoparticles were filtered through a 0.2 μm pore sterile filter. Lipid nanoparticle particle size was 70-90 nm diameter as determined by quasi-elastic light scattering using a Nicomp 370 submicron particle sizer (Santa Barbara, Calif.).
Studies were performed in 6-8 week old female C57BL/6 mice (Charles River) according to guidelines established by an institutional animal care committee (ACC) and the Canadian Council on Animal Care (CCAC). Varying doses of mRNA-lipid nanoparticle were systemically administered by tail vein injection and animals euthanized at specific time points (1, 2, 4, 8 and 24 hrs) post-administration. Liver and spleen were collected in pre-weighted tubes, weights determined, immediately snap frozen in liquid nitrogen and stored at −80° C. until processing for analysis.
For liver, approximately 50 mg was dissected for analyses in a 2 mL FastPrep tubes (MP Biomedicals, Solon Ohio). ¼″ ceramic sphere (MP Biomedicals) was added to each tube and 500 μL of Glo Lysis Buffer—GLB (Promega, Madison Wis.) equilibrated to room temperature was added to liver tissue. Liver tissues were homogenized with the FastPrep24 instrument (MP Biomedicals) at 2×6.0 m/s for 15 seconds. Homogenate was incubated at room temperature for 5 minutes prior to a 1:4 dilution in GLB and assessed using SteadyGlo Luciferase assay system (Promega). Specifically, 50 μL of diluted tissue homogenate was reacted with 50 μL of SteadyGlo substrate, shaken for 10 seconds followed by 5 minute incubation and then quantitated using a CentroXS^3 LB 960 luminometer (Berthold Technologies, Germany). The amount of protein assayed was determined by using the BCA protein assay kit (Pierce, Rockford Ill.). Relative luminescence units (RLU) were then normalized to total ug protein assayed. To convert RLU to ng luciferase a standard curve was generated with QuantiLum Recombinant Luciferase (Promega). Based in the data provided in FIG. 1, the four-hour time point was chosen for efficacy evaluation of the lipid formulations (see Example 29).
The FLuc mRNA (L-6107) from Trilink Biotechnologies will express a luciferase protein, originally isolated from the firefly, Photinus pyralis. FLuc is commonly used in mammalian cell culture to measure both gene expression and cell viability. It emits bioluminescence in the presence of the substrate, luciferin. This capped and polyadenylated mRNA is fully substituted with 5-methylcytidine and pseudouridine.
The cationic lipids shown in Table 2 have previously been tested with nucleic acids. For comparative purposes, these lipids were also used to formulate lipid nanoparticles containing the FLuc mRNA (L-6107) using an in line mixing method, as described in example 28 and in PCT/US10/22614, which is hereby incorporated by reference in its entirety. […] Relative activity was determined by measuring luciferase expression in the liver 4 hours following administration via tail vein injection as described in example 28. The activity was compared at a dose of 0.3 and 1.0 mg mRNA/kg and expressed as ng luciferase/g liver measured 4 hours after administration, as described in Example 28. […]

[2] = Lipid nanoparticle particle size by quasi-elastic light scattering; format: physicochemical; settings: MC3/DSPC/cholesterol/PEG-lipid 50:10:38.5:1.5 LNP with mRNA, Nicomp 370
Experimental: as §1

[3] = pKa of formulated cationic lipids in lipid nanoparticles (TNS fluorescence assay); format: physicochemical; settings: probe 2-(p-toluidino)-6-napthalene sulfonic acid (TNS), 1 µM final; formulated in LNP cationic lipid/DSPC/cholesterol/PEG-lipid 50/10/38.5/1.5 mol %; pH of half-maximal TNS fluorescence
Experimental: As described elsewhere, the pKa of formulated cationic lipids is correlated with the effectiveness of LNPs for delivery of nucleic acids (see Jayaraman et al, Angewandte Chemie, International Edition (2012), 51(34), 8529-8533; Semple et al, Nature Biotechnology 28, 172-176 (2010)). The preferred range of pKa is ˜5 to ˜7. […] Lipid nanoparticles comprising of cationic lipid/DSPC/cholesterol/PEG-lipid (50/10/38.5/1.5 mol %) in PBS at a concentration of 0.4 mM total lipid are prepared using the in-line process as described in Example 28. TNS was prepared as a 100 μM stock solution in distilled water. Vesicles were diluted to 24 μM lipid in 2 mL of buffered solutions containing, 10 mM HEPES, 10 mM MES, 10 mM ammonium acetate, 130 mM NaCl, where the pH ranged from 2.5 to 11. An aliquot of the TNS solution was added to give a final concentration of 1 μM and following vortex mixing fluorescence intensity was measured at room temperature in a SLM Aminco Series 2 Luminescence Spectrophotometer using excitation and emission wavelengths of 321 nm and 445 nm. A sigmoidal best fit analysis was applied to the fluorescence data and the pKa was measured as the pH giving rise to half-maximal fluorescence intensity (see FIG. 2).

SMILES | Lipid nanoparticle particle size (diameter) [2] | pKa [3] | Liver Luc @ 0.3 mg/kg (ng luc/g liver) ([1]; 0.3 mg mRNA/kg) | Liver Luc @ 0.3 mg/kg dose ([1]; 0.3 mg mRNA/kg, LNP 50% cationic lipid/10% DSPC/38.5% cholesterol/1.5% PEG-DMG) | Liver Luc @ 1.0 mg/kg (ng luc/g liver) ([1]; 1.0 mg mRNA/kg) | Liver Luc @ 1.0 mg/kg dose ([1]; 1.0 mg mRNA/kg, LNP 50% cationic lipid/10% DSPC/38.5% cholesterol/1.5% PEG-DMG)
CCCCC/C=C\C/C=C\CCCCCCCCC(CCCCCCCC/C=C\C/C=C\CCCCC)N(CCCN(C)C)C(=O)C(CC)CCCCC (centres unmarked) [Compound 7] |  | 5.93 | 833 ± 401 ng luc/g liver |  | 8859 ± 780 ng luc/g liver | 
CCCCCCCCC(CCCCCC)COC(=O)CCCCCCCCC(CCCCCCCCC(=O)OCC(CCCCCC)CCCCCCCC)N(CCCN(C)C)C(=O)CCCCCCC (centres unmarked) [Compound 12] |  | 6.21 | 3336 ± 1394 ng luc/g liver |  | 13577 ± 1948 ng luc/g liver | 
CCCCC/C=C\C/C=C\CCCCCCCCC(CCCCCCCC/C=C\C/C=C\CCCCC)N(C)CCN(C)C [B, reference compound] |  | 6.17 | 95 ± 41 ng luc/g liver |  | 1131 ± 384 ng luc/g liver | 
CCCCCCCCC(=O)N(CCCN1CCCC1)C(CCCCCCCCC(=O)OCC(CCCC)CCCCCC)CCCCCCCCC(=O)OCC(CCCC)CCCCCC (centres unmarked) [Compound 15] |  | 6.32 | 2708 ± 924 ng luc/g liver |  | 15930 ± 4711 ng luc/g liver | 
CCCCC/C=C\C/C=C\CCCCCCCCC(CCCCCCCC/C=C\C/C=C\CCCCC)N(CCCN(C)C)C(=O)C(CCCCCC)CCCCCCCC (centres unmarked) [Compound 8] |  | 5.35 | 105 ± 98 ng luc/g liver |  | 1238 ± 153 ng luc/g liver | 

Second part, led by results:

Lipid nanoparticle particle size (diameter) [2] | pKa [3] | SMILES | Liver Luc @ 0.3 mg/kg (ng luc/g liver) ([1]; 0.3 mg mRNA/kg) | Liver Luc @ 0.3 mg/kg dose ([1]; 0.3 mg mRNA/kg, LNP 50% cationic lipid/10% DSPC/38.5% cholesterol/1.5% PEG-DMG) | Liver Luc @ 1.0 mg/kg (ng luc/g liver) ([1]; 1.0 mg mRNA/kg) | Liver Luc @ 1.0 mg/kg dose ([1]; 1.0 mg mRNA/kg, LNP 50% cationic lipid/10% DSPC/38.5% cholesterol/1.5% PEG-DMG)
70-90 nm |  | CCCCC/C=C\C/C=C\CCCCCCCCC(CCCCCCCC/C=C\C/C=C\CCCCC)OC(=O)CCCN(C)C [MC3, reference compound] | 603 ± 150 ng luc/g liver | 198 ± 126 ng luciferase/g liver | 2876 ± 622 ng luc/g liver | 757 ± 528 ng luciferase/g liver
 | 6.45 | CCCCCCCCC(CCCCCC)COC(=O)CCCCCC(CCCCCC(=O)OCC(CCCCCC)CCCCCCCC)N(CCCN(C)C)C(=O)CCCCCCC (centres unmarked) [Compound 39] | 779 ± 82 ng luc/g liver |  | 5180 ± 2116 ng luc/g liver | 
 | 6.13 | CCCCCCCCC(=O)N(CCCN(C)C)C(CCCCCCCCCOC(=O)C(CCCCCC)CCCCCCCC)CCCCCCCCCOC(=O)C(CCCCCC)CCCCCCCC (centres unmarked) [Compound 36] | 541 ± 91 ng luc/g liver |  | 4736 ± 980 ng luc/g liver | 
 | 6.29 | CCCCCCCCC(=O)N(CCCN(C)C)C(CCCCCCCCCOC(=O)C(CCCC)CCCCCC)CCCCCCCCCOC(=O)C(CCCC)CCCCCC (centres unmarked) [Compound 17] | 837 ± 260 ng luc/g liver |  | 6703 ± 689 ng luc/g liver | 
